# Results published in the supplement of paper PMC10307832.
# Tests used:
# Experiment in all cases: relative viability (nuclei count vs DMSO), 5 days (fraction); higher = more cells survive
# [1] = test system: LU99A
# Outline: (§1)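 One day after seeding in 1536-well plates, lung cancer cell lines were dosed by pin tool. Dosing was either single-drug or a fixed anchor-drug dose plus five library-drug doses (not always all listed) in √10 steps. After 5 days, nuclei were stained in one fix-and-stain step and counted on 4× images, and relative viability is the nuclei count of treated wells over that of vehicle wells, given as the median of duplicate plates.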
# [2] = test system: NCI-H1651
# Outline: as §1
# [3] = test system: SK-MES-1
# Outline: as §1
# [4] = test system: PC-3 [JPC-3]
# Outline: as §1
# [5] = test system: LK-2
# Outline: as §1
# [6] = test system: NCI-H1355
# Outline: as §1
# [7] = test system: NCI-H2087
# Outline: as §1
# [8] = test system: LCLC-97TM1
# Outline: as §1
# [9] = test system: NCI-H661
# Outline: as §1
# [10] = test system: BEN
# Outline: as §1
# [11] = test system: NCI-H358
# Outline: as §1
# [12] = test system: NCI-H1666
# Outline: as §1
# [13] = test system: NCI-H838
# Outline: as §1
# [14] = test system: NCI-H1944
# Outline: as §1
# [15] = test system: HCC-78
# Outline: as §1
# [16] = test system: NCI-H1975
# Outline: as §1
# [17] = test system: LC-2-ad
# Outline: as §1
# [18] = test system: LXF-289
# Outline: as §1
# [19] = test system: NCI-H596
# Outline: as §1
# [20] = test system: NCI-H650
# Outline: as §1
smiles,measurement,setting,value
O=c1cc(-c2cccc3c2Sc2ccccc2S3)oc(N2CCOCC2)c1 + C[C@]1(O)C[C@@H](c2nc(-c3ccc4ccc(-c5ccccc5)nc4c3)c3c(N)nccn32)C1 [Linsitinib] (partner 1 µM),relative viability,[1]; first compound 0.08 µM,0.58
same,relative viability,[1]; first compound 0.253 µM,0.582
same,relative viability,[1]; first compound 0.8 µM,0.631
same,relative viability,[1]; first compound 2.53 µM,0.544
same,relative viability,[1]; first compound 8 µM,0.608
same,relative viability,[2]; first compound 0.08 µM,1.06
same,relative viability,[2]; first compound 0.253 µM,1.2
same,relative viability,[2]; first compound 0.8 µM,0.954
same,relative viability,[2]; first compound 2.53 µM,0.879
same,relative viability,[2]; first compound 8 µM,0.865
same,relative viability,[3]; first compound 0.08 µM,1.12
same,relative viability,[3]; first compound 0.253 µM,1.16
same,relative viability,[3]; first compound 0.8 µM,0.956
same,relative viability,[3]; first compound 2.53 µM,1.08
same,relative viability,[3]; first compound 8 µM,1.05
same,relative viability,[4]; first compound 0.08 µM,1.02
same,relative viability,[4]; first compound 0.253 µM,1.03
same,relative viability,[4]; first compound 0.8 µM,0.992
same,relative viability,[4]; first compound 2.53 µM,0.972
same,relative viability,[4]; first compound 8 µM,0.91
same,relative viability,[5]; first compound 0.08 µM,0.64
same,relative viability,[5]; first compound 0.253 µM,0.527
same,relative viability,[5]; first compound 0.8 µM,0.549
same,relative viability,[5]; first compound 2.53 µM,0.533
same,relative viability,[5]; first compound 8 µM,0.651
same,relative viability,[6]; first compound 0.08 µM,0.853
same,relative viability,[6]; first compound 0.253 µM,0.937
same,relative viability,[6]; first compound 0.8 µM,0.818
same,relative viability,[6]; first compound 2.53 µM,0.712
same,relative viability,[6]; first compound 8 µM,0.689
same,relative viability,[7]; first compound 0.08 µM,1.1
same,relative viability,[7]; first compound 0.253 µM,1.03
same,relative viability,[7]; first compound 0.8 µM,0.927
same,relative viability,[7]; first compound 2.53 µM,0.952
same,relative viability,[7]; first compound 8 µM,1.01
same,relative viability,[8]; first compound 0.08 µM,0.18
same,relative viability,[8]; first compound 0.253 µM,0.194
same,relative viability,[8]; first compound 0.8 µM,0.203
same,relative viability,[8]; first compound 2.53 µM,0.188
same,relative viability,[8]; first compound 8 µM,0.185
same,relative viability,[9]; first compound 0.08 µM,0.507
same,relative viability,[9]; first compound 0.253 µM,0.473
same,relative viability,[9]; first compound 0.8 µM,0.55
same,relative viability,[9]; first compound 2.53 µM,0.527
same,relative viability,[9]; first compound 8 µM,0.591
same,relative viability,[10]; first compound 0.08 µM,0.996
same,relative viability,[10]; first compound 0.253 µM,1.04
same,relative viability,[10]; first compound 0.8 µM,1.14
same,relative viability,[10]; first compound 2.53 µM,0.898
same,relative viability,[10]; first compound 8 µM,1.23
same,relative viability,[11]; first compound 0.08 µM,0.618
same,relative viability,[11]; first compound 0.253 µM,0.665
same,relative viability,[11]; first compound 0.8 µM,0.79
same,relative viability,[11]; first compound 2.53 µM,0.707
same,relative viability,[11]; first compound 8 µM,0.784
same,relative viability,[12]; first compound 0.08 µM,0.827
same,relative viability,[12]; first compound 0.253 µM,0.946
same,relative viability,[12]; first compound 0.8 µM,0.545
same,relative viability,[12]; first compound 2.53 µM,0.738
same,relative viability,[12]; first compound 8 µM,0.805
same,relative viability,[13]; first compound 0.08 µM,0.958
same,relative viability,[13]; first compound 0.253 µM,1.49
same,relative viability,[13]; first compound 0.8 µM,0.821
same,relative viability,[13]; first compound 2.53 µM,0.859
same,relative viability,[13]; first compound 8 µM,0.899
same,relative viability,[14]; first compound 0.08 µM,1.04
same,relative viability,[14]; first compound 0.253 µM,1.26
same,relative viability,[14]; first compound 0.8 µM,1.23
same,relative viability,[14]; first compound 8 µM,1.18
same,relative viability,[15]; first compound 0.08 µM,0.561
same,relative viability,[15]; first compound 0.253 µM,0.746
same,relative viability,[15]; first compound 0.8 µM,0.41
same,relative viability,[15]; first compound 2.53 µM,0.457
same,relative viability,[15]; first compound 8 µM,0.575
same,relative viability,[16]; first compound 0.08 µM,1.07
same,relative viability,[16]; first compound 0.253 µM,1.2
same,relative viability,[16]; first compound 0.8 µM,0.807
same,relative viability,[16]; first compound 2.53 µM,0.863
same,relative viability,[16]; first compound 8 µM,0.881
same,relative viability,[17]; first compound 0.08 µM,0.79
same,relative viability,[17]; first compound 0.253 µM,0.967
same,relative viability,[17]; first compound 0.8 µM,0.828
same,relative viability,[17]; first compound 2.53 µM,0.749
same,relative viability,[17]; first compound 8 µM,0.802
same,relative viability,[18]; first compound 0.08 µM,0.993
same,relative viability,[18]; first compound 0.253 µM,0.976
same,relative viability,[18]; first compound 0.8 µM,0.99
same,relative viability,[18]; first compound 2.53 µM,0.96
same,relative viability,[18]; first compound 8 µM,1.07
same,relative viability,[19]; first compound 0.08 µM,1.02
same,relative viability,[19]; first compound 0.253 µM,1.2
same,relative viability,[19]; first compound 0.8 µM,1.14
same,relative viability,[19]; first compound 2.53 µM,1.08
same,relative viability,[19]; first compound 8 µM,1.15
same,relative viability,[20]; first compound 0.08 µM,0.829
same,relative viability,[20]; first compound 0.253 µM,0.854
same,relative viability,[20]; first compound 0.8 µM,0.782
same,relative viability,[20]; first compound 2.53 µM,0.642
same,relative viability,[20]; first compound 8 µM,0.7
O=c1cc(N2CCOCC2)oc2c(-c3cccc4c3sc3ccccc34)cccc12 + Cc1nc(NC(=O)N2CCC[C@H]2C(N)=O)sc1-c1ccnc(C(C)(C)C(F)(F)F)c1 [Alpelisib] (partner 2 µM),relative viability,[1]; first compound 0.01 µM,0.595
same,relative viability,[1]; first compound 0.03162 µM,0.532
same,relative viability,[1]; first compound 0.1 µM,0.521
same,relative viability,[1]; first compound 0.3162 µM,0.598
same,relative viability,[1]; first compound 1 µM,0.571
same,relative viability,[2]; first compound 0.01 µM,0.924
same,relative viability,[2]; first compound 0.03162 µM,0.952
same,relative viability,[2]; first compound 0.1 µM,1.04
same,relative viability,[2]; first compound 0.3162 µM,0.968
same,relative viability,[2]; first compound 1 µM,1.01
same,relative viability,[3]; first compound 0.01 µM,0.842
same,relative viability,[3]; first compound 0.03162 µM,0.839
same,relative viability,[3]; first compound 0.1 µM,0.867
same,relative viability,[3]; first compound 0.3162 µM,0.935
same,relative viability,[3]; first compound 1 µM,0.937
same,relative viability,[4]; first compound 0.01 µM,1.01
same,relative viability,[4]; first compound 0.03162 µM,1.05
same,relative viability,[4]; first compound 0.1 µM,1.02
same,relative viability,[4]; first compound 0.3162 µM,1.02
same,relative viability,[4]; first compound 1 µM,1.04
same,relative viability,[5]; first compound 0.01 µM,1.1
same,relative viability,[5]; first compound 0.03162 µM,1.01
same,relative viability,[5]; first compound 0.1 µM,1.14
same,relative viability,[5]; first compound 0.3162 µM,1.03
same,relative viability,[5]; first compound 1 µM,1.25
same,relative viability,[6]; first compound 0.01 µM,0.871
same,relative viability,[6]; first compound 0.03162 µM,0.855
same,relative viability,[6]; first compound 0.3162 µM,0.903
same,relative viability,[6]; first compound 1 µM,0.82
same,relative viability,[7]; first compound 0.01 µM,1.12
same,relative viability,[7]; first compound 0.03162 µM,1.02
same,relative viability,[7]; first compound 0.1 µM,1.13
same,relative viability,[7]; first compound 0.3162 µM,1.23
same,relative viability,[7]; first compound 1 µM,1.16
same,relative viability,[8]; first compound 0.01 µM,0.287
same,relative viability,[8]; first compound 0.03162 µM,0.269
same,relative viability,[8]; first compound 0.3162 µM,0.201
same,relative viability,[8]; first compound 1 µM,0.244
same,relative viability,[9]; first compound 0.01 µM,0.556
same,relative viability,[9]; first compound 0.03162 µM,0.243
same,relative viability,[9]; first compound 0.1 µM,0.591
same,relative viability,[9]; first compound 0.3162 µM,0.606
same,relative viability,[9]; first compound 1 µM,0.506
same,relative viability,[10]; first compound 0.01 µM,0.946
same,relative viability,[10]; first compound 0.03162 µM,1.16
same,relative viability,[10]; first compound 0.1 µM,0.951
same,relative viability,[10]; first compound 0.3162 µM,0.951
same,relative viability,[10]; first compound 1 µM,1.05
same,relative viability,[11]; first compound 0.01 µM,0.811
same,relative viability,[11]; first compound 0.03162 µM,0.807
same,relative viability,[11]; first compound 0.1 µM,0.841
same,relative viability,[11]; first compound 0.3162 µM,0.847
same,relative viability,[11]; first compound 1 µM,0.83
same,relative viability,[12]; first compound 0.01 µM,0.936
same,relative viability,[12]; first compound 0.03162 µM,0.864
same,relative viability,[12]; first compound 0.1 µM,0.977
same,relative viability,[12]; first compound 0.3162 µM,0.963
same,relative viability,[12]; first compound 1 µM,0.832
same,relative viability,[13]; first compound 0.01 µM,0.961
same,relative viability,[13]; first compound 0.03162 µM,0.99
same,relative viability,[13]; first compound 0.1 µM,1.03
same,relative viability,[13]; first compound 0.3162 µM,1.02
same,relative viability,[13]; first compound 1 µM,0.975
same,relative viability,[14]; first compound 0.01 µM,0.814
same,relative viability,[14]; first compound 0.03162 µM,0.833
same,relative viability,[14]; first compound 0.1 µM,0.82
same,relative viability,[14]; first compound 0.3162 µM,0.847
same,relative viability,[14]; first compound 1 µM,0.801
same,relative viability,[15]; first compound 0.01 µM,0.374
same,relative viability,[15]; first compound 0.03162 µM,0.305
same,relative viability,[15]; first compound 0.1 µM,0.299
same,relative viability,[15]; first compound 0.3162 µM,0.406
same,relative viability,[15]; first compound 1 µM,0.331
same,relative viability,[16]; first compound 0.01 µM,0.619
same,relative viability,[16]; first compound 0.03162 µM,0.623
same,relative viability,[16]; first compound 0.1 µM,0.649
same,relative viability,[16]; first compound 0.3162 µM,0.621
same,relative viability,[16]; first compound 1 µM,0.608
same,relative viability,[17]; first compound 0.01 µM,0.91
same,relative viability,[17]; first compound 0.1 µM,0.976
same,relative viability,[17]; first compound 0.3162 µM,0.839
same,relative viability,[17]; first compound 1 µM,0.906
same,relative viability,[18]; first compound 0.01 µM,1.05
same,relative viability,[18]; first compound 0.03162 µM,1.03
same,relative viability,[18]; first compound 0.1 µM,1.05
same,relative viability,[18]; first compound 0.3162 µM,1
same,relative viability,[18]; first compound 1 µM,1.02
same,relative viability,[19]; first compound 0.01 µM,0.469
same,relative viability,[19]; first compound 0.03162 µM,0.506
same,relative viability,[19]; first compound 0.1 µM,0.451
same,relative viability,[19]; first compound 0.3162 µM,0.474
same,relative viability,[19]; first compound 1 µM,0.522
same,relative viability,[20]; first compound 0.01 µM,1.06
same,relative viability,[20]; first compound 0.03162 µM,1.15
same,relative viability,[20]; first compound 0.3162 µM,1.21
same,relative viability,[20]; first compound 1 µM,1.09
